From patent publication US10363231B2, “Compounds and methods of treating ocular disorders” (CASE WESTERN RESERVE UNIVERSITY, priority 2014, dated 2019)
Where two headings read alike, the source gives them in different places.

Columns and labels:
Abca4^−/−Rdh8^−/− mice [1] = assay: Toxicity in treated Abca4−/−Rdh8−/− mice (Table 2); assay type: in vivo; details: 4-week-old Abca4−/−Rdh8−/− mice, oral gavage
Experimental: (§1) Abca4^−/−Rdh8^−/− double knockout mice were generated as previously described. Mice were housed in the animal facility at the School of Medicine, Case Western Reserve University, where they were maintained under either complete darkness or in a 12-h light (˜300 lux) and 12-h dark cycle. All tested primary amines were suspended in 100 μl of soybean oil with less than 10% (v/v) DMSO and were administered by oral gavage with a 22-gauge feeding needle. Experimental manipulations in the dark were done under dim red light transmitted through a Kodak No. 1 safelight filter (transmittance >560 nm). All animal procedures and experiments were approved by the Case Western Reserve University Animal Care Committees and conformed to recommendations of the American Veterinary Medical Association Panel on Euthanasia and the Association of Research for Vision and Ophthalmology.
(§2) For practical reasons, only eight of these leading compounds (QEA-B-001-NH2, B-002-NH2, C-001-NH2, C-003-NH2, C006-NH2, E-002-NH2, TEA-B-002-NH2, and C00-2-NH2) along with retinylamine as a control were selected for further testing in Abca4^−/−Rdh8^−/− mice, an animal model for light-induced retinal degeneration (Table 2). Additionally, two novel amines with moderate inhibition of RPE65 (QEA-A-006-NH2 and QEA-B-003-NI 12) and one with strong inhibition (QEA-A-005-NH2) were added to the first test group for comparison. Mice were gavaged with 1 mg of a test compound and then kept in the dark for 24 h prior to being exposed to bright light (˜10,000 lux) for 1 h. Retinal damage was assessed with OCT that measured the thickness of the outer nuclear layer and by quantification of tissue 11-cis retinal levels. An example is shown for imaging results in FIG. 4A and for 11-cis-retinal quantification in FIG. 4B. Additionally, extracts of livers obtained from treated mice were analyzed by HPLC to estimate the amounts of corresponding amides (FIG. 4C).

[2] = Analysis of retinoid composition in mouse tissues: amide forms in liver by HPLC; assay type: in vivo, mice; details: oral gavage; for Protection by amide in liver: 4-week-old Abca4−/−Rdh8−/− mice, dark 24 h, liver extracts by HPLC; for amidation in vivo (accumulation of amide forms in mouse liver): liver HPLC
Experimental: as §1
Two mg of primary amines were administered by oral gavage to 4-week-old Abca4^−/−Rdh8^−/− mice, which then were kept in the dark for 24 h. Then mice were euthanized, and their livers were homogenized in 1 ml of 10 mM sodium phosphate buffer, pH 7.4, containing 50% methanol (v/v). The resulting mixture was extracted with 4 ml of hexanes. Extracts were dried in vacuo, and reconstituted in 300 μl of hexanes. 100 μl of this solution was analyzed by HPLC as described above for the LRAT activity assay.
as §2

RPE65 = target: T1, RPE65 (Bos taurus, UniProt Q28175); assay: Retinoid isomerase activity assay (11-cis-retinol production in RPE microsomes); assay type: biochemical, Bovine
T1 construct: from tissue; host or cells: bovine retinal pigment epithelium (RPE) microsomes
Experimental: (§3) Bovine RPE microsomes were isolated from RPE homogenates by differential centrifugation as previously described. The resulting microsomal precipitate was resuspended in 10 mM Bis-Tris propane/HCl buffer, pH 7.4, to achieve a total protein concentration of […]. Then the mixture was placed in a quartz cuvette and irradiated for 6 min at 4° C. with a ChromatoUVE transilluminator (model TM-15; UVP) to eliminate residual retinoids. After irradiation, DTT was added to the RPE microsomal mixture to achieve a final concentration of 5 mM.
[…] The resulting mixture was pre incubated at room temperature for 5 min. Then 1 μl of all-trans-retinol (in DMF, final concentration 20 μM) was added. The resulting mixture was incubated at 37° C. for 15 min to 2 h. The reaction was quenched by adding 300 μl of methanol, and products were extracted with 300 μl of hexanes. Production of 11-cis-retinol was quantified by normal phase HPLC with 10% (v/v) ethyl acetate in hexanes as the eluent at a flow rate of 1.4 ml·min^−1. Retinoids were detected by monitoring their absorbance at 325 nm and quantified based on a standard curve representing the relationship between the amount of 11-cis-retinol and the area under the corresponding chromatographic peak.
Primary amines of compounds derived from the aldehydes were subsequently tested for their ability to inhibit the RPE65-dependent retinoid isomerization reaction in dose- and time dependent reactions as exemplified by QEB-B-001 (FIG. 3B). Amines were incubated with RPE microsomes in the presence of all-trans-retinol and the 11-cis-retinoid binding protein, CRALBP.
Progress of the enzymatic reaction was monitored by HPLC separation of retinoids and quantification of 11-cis-retinol with a decrease of 11-cis-retinol production reflecting inhibition of RPE65 by a tested amine. […] This moderate inhibition could be enhanced by shortening the polyene chain length (TEA amines) or diminished by introducing an extra positive charge into the tested compounds (QEA-G amines).

LRAT = target: T2, LRAT (Bos taurus, UniProt Q9BGL2); assay: LRAT activity assay with bovine RPE microsomes (esterification of the corresponding primary alcohols); assay type: biochemical; details: percentage of the corresponding primary alcohol esterified by LRAT in 1 h at 37° C; 10 μM; RPE microsomes
T2 construct: incubated with RPF microsomes that served as a source of LRAT enzymatic activity; from tissue; host or cells: bovine retinal pigment epithelium (RPE) microsomes
T2 sequence (Q9BGL2 1-230): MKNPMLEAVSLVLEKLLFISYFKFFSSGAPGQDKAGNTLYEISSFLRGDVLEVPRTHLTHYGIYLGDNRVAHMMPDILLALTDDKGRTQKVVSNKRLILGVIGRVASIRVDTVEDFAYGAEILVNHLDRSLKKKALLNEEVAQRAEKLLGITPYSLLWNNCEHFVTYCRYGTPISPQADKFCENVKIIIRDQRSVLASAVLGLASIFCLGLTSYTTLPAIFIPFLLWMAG
Experimental: as §3
Two μl of a synthesized primary alcohol or amine dissolved in DMF (final concentration 10 μM) and 2 μl of 1,2-diheptanoyl-sn-glicerol-3-phosphocholine (water, final concentration 1 mM) were added to 200 μl of 10 mM Bis-Tris propane/HCl buffer, pH 7.4, containing 150 μg of RPE microsomes and 1% (v/w) BSA. The resulting mixture was incubated at 37° C. for 1 h. The reaction was quenched by adding 300 μl of methanol. Most reaction products were extracted with 300 μl of hexanes, except for products from the QEA-C-006 and QEA-G groups which were extracted by adding 300 μl of ethyl acetate and 300 μl of water.
Reaction products were separated and quantified by normal phase HPLC (Agilent Sil 5 μm, 4.6 mm×250 mm) in stepwise gradient of ethyl acetate in hexanes (0-15 min, 10%; 20-30 min, 30%) at a flow rate of 1.4 ml·min^−1.
The properties of retinoid derivatives were examined by two standard enzymatic tests, the […] and retinoid isomerization assays. To identify substrates of LRAT, aldehydes were reduced by sodium borohydrate to their corresponding primary alcohols that then were directly used in the esterification assay (FIG. 2B).
The alcohols were incubated with RPF microsomes that served as a source of LRAT enzymatic activity. Products of the enzymatic reaction as well as the remaining substrates were extracted with organic solvents and analyzed by HPLC. The ratio between a substrate and its esterified form was used to measure enzymatic activity efficiency, based on equivalent UV absorption of the substrate and product at their specific UV maxim wavelengths. Compounds classified as ‘good’ LRAT substrates converted at least 50% of their available alcohol substrates into corresponding esters under these experimental conditions, whereas marginal LRAT substrates were converted at less than 5%. Alcohols with a 5-50% conversion ratio were classified as weak substrates. Among 35 tested compounds, 23 were categorized as good and 9 as weak substrates; 3 compounds were not esterified by LRAT (Table 1 and FIG. 2C). […] Moreover, breaking double bond conjugation along the polyene chain or deletion of a C9 and/or a C13 methyl group also was allowed.

Abca4^−/−Rdh8^−/− mice [3] = assay: Light-induced acute retinal degeneration in Abca4−/−Rdh8−/− mice (OCT, 11-cis-retinal, ERG); assay type: in vivo; details: 2 mg; dark 24 h, then 10,000 lux 1 h
[4] = primary amine, decline in 11-cis-retinol production in RPE microsomes, read-out: Inhibition of RPE65

T1 sequence (Q28175 whole entry): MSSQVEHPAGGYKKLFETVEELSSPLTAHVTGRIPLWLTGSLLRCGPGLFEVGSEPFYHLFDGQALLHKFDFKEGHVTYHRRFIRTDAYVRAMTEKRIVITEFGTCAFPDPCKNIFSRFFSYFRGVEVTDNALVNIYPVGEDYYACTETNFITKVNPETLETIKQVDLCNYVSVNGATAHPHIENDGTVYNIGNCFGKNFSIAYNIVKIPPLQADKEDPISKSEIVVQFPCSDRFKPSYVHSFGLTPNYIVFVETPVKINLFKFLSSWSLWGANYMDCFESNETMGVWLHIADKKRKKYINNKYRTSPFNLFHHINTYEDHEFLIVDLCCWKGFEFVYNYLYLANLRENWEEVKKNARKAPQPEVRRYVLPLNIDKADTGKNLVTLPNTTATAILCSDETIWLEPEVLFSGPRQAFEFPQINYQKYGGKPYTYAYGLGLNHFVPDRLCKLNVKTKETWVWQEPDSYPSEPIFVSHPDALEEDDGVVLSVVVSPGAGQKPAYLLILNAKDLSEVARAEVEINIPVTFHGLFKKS

| SMILES | Toxicity (Abca4^−/−Rdh8^−/− mice [1]) | Protection by amide in liver [2] | IC50 (RPE65; [4]) [µM] | IC50 (RPE65; read-out: inhibition of RPE65) [µM] | LRAT Substrate (LRAT) [%] | protection of ONL (averaged ONL thickness by OCT) (Abca4^−/−Rdh8^−/− mice [3]) | amidation in vivo (accumulation of amide forms in mouse liver) [2] | inhibition of RPE65 (RPE65) |
| --- | --- | --- | --- | --- | --- | --- | --- | --- |
| CC1=C(/C=C/C=C/C=C/C=C/CN)C(C)(C)CCC1 [QEA-A-005-NH2] | None | Strong | < 10 | < 10 | 100 | protected |  |  |
| CC(C)(C)C(=C\C=C\CN)/C=C/C1=CCCCC1 [TEA-B-002-NH2] | Yes | None | > 200 |  | 10 |  | not efficiently amidated | did not inhibit |
| CC(/C=C/C=C(/C=C/c1ccccc1)C(C)(C)C)=C\CN [QEA-C-001-NH2] | Yes | Strong | > 200 |  | 50 |  | efficiently converted into amides | did not inhibit |
| CC(/C=C/C=C(/c1ccc2ccccc2c1)C(C)(C)C)=C\CN [TEA-C-002-NH2] | Yes | Strong | > 200 |  | 20 |  | efficiently converted into amides | did not inhibit |
| CC(/C=C/C1=CCCCC1)=C\C=C\C(C)=C\CN [QEA-A-006-NH2] | None | None | 10 to 100 |  | 100 |  | not efficiently amidated |  |
| CC(/C=C/C=C(/C=C/c1ccc(C(F)(F)F)cc1)c1ccccc1)=C\CN [QEA-C-003-NH2] | Yes | None | > 200 |  | 100 |  | not efficiently amidated | did not inhibit |
| COc1ccc(C(=C\C=C\C(C)=C\CN)/C=C/c2ccc(O)cc2)cc1 [QEA-C-006-NH2] | None | None | > 200 |  | 50 |  | not efficiently amidated | did not inhibit |
| COc1ccc(C(=C\C=C\C(C)=C\CN)/C=C/C2=CCCCC2)cc1 [QEA-E-002-NH2] | None | Weak | > 200 |  | 100 |  | not efficiently amidated | did not inhibit |
